Measured values reported in PubChem BioAssay (NCI).
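Tested at 5 concentrations; 48 h exposure; 96-well plates; endpoints linearly interpolated, else capped at highest concentration. TGI: total growth inhibition.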

Legend:
Test in all cases: DTP human tumour cell line panel, 48 h
[1] = tested on: 786-0 renal
[2] = tested on: A498 renal
[3] = tested on: A549 NSCLC
[4] = tested on: ACHN renal
[5] = tested on: CAKI-1 renal
[6] = tested on: CCRF-CEM leukemia
[7] = tested on: COLO 205 colon
[8] = tested on: DLD-1 colon
[9] = tested on: DMS 114 small cell lung
[10] = tested on: DMS 273 small cell lung
[11] = tested on: EKVX NSCLC
[12] = tested on: HCC-2998 colon
[13] = tested on: HCT-116 colon
[14] = tested on: HCT-15 colon
[15] = tested on: HL-60(TB) leukemia
[16] = tested on: HOP-18 NSCLC
[17] = tested on: HOP-62 NSCLC
[18] = tested on: HOP-92 NSCLC
[19] = tested on: HT29 colon
[20] = tested on: IGROV1 ovarian
[21] = tested on: K-562 leukemia
[22] = tested on: KM12 colon
[23] = tested on: KM20L2 colon
[24] = tested on: LOX IMVI melanoma
[25] = tested on: LXFL 529 NSCLC
[26] = tested on: M14 melanoma
[27] = tested on: M19-MEL melanoma
[28] = tested on: MALME-3M melanoma
[29] = tested on: NCI-H226 lung
[30] = tested on: NCI-H23 lung
[31] = tested on: NCI-H460 lung
[32] = tested on: NCI-H522 lung
[33] = tested on: OVCAR-3 ovarian
[34] = tested on: OVCAR-4 ovarian
[35] = tested on: OVCAR-5 ovarian
[36] = tested on: OVCAR-8 ovarian
[37] = tested on: RPMI-8226 leukemia
[38] = tested on: RXF 393 renal
[39] = tested on: RXF-631 renal
[40] = tested on: SF-268 CNS
[41] = tested on: SF-295 CNS
[42] = tested on: SF-539 CNS
[43] = tested on: SK-MEL-2 melanoma
[44] = tested on: SK-MEL-28 melanoma
[45] = tested on: SK-MEL-5 melanoma
[46] = tested on: SK-OV-3 ovarian
[47] = tested on: SN12C renal
[48] = tested on: SNB-19 CNS
[49] = tested on: SNB-75 CNS
[50] = tested on: SR leukemia
[51] = tested on: SW-620 colon
[52] = tested on: TK-10 renal
[53] = tested on: U251 CNS
[54] = tested on: UACC-257 melanoma
[55] = tested on: UACC-62 melanoma
[56] = tested on: UO-31 renal
[57] = tested on: XF 498 CNS
[58] = tested on: MOLT-4 leukemia

CCC1(O)C(=O)OCc2c1cc1n(c2=O)Cc2cc3ccc(CO)cc3nc2-1 (stereo not drawn)
TGI [1]: 7.51 µM
TGI [2]: 24.5 µM
TGI [3]: > 100 µM
TGI [4]: 11 µM
TGI [5]: 23.5 µM
TGI [6]: 0.987 µM
TGI [7]: 52.3 µM
TGI [8]: > 100 µM
TGI [9]: > 100 µM
TGI [10]: 11.1 µM
TGI [11]: > 100 µM
TGI [12]: > 80.2 µM
TGI [13]: 31.1 µM
TGI [14]: > 100 µM
TGI [15]: > 27 µM
TGI [16]: > 93.9 µM
TGI [17]: 2.56 µM
TGI [18]: > 87.3 µM
TGI [19]: > 81.4 µM
TGI [20]: > 77.4 µM
TGI [21]: > 100 µM
TGI [22]: > 100 µM
TGI [23]: > 69.9 µM
TGI [24]: 12.5 µM
TGI [25]: > 100 µM
TGI [26]: 33.1 µM
TGI [27]: 54 µM
TGI [28]: 59.9 µM
TGI [29]: 6.58 µM
TGI [30]: 10.2 µM
TGI [31]: 22.5 µM
TGI [32]: 26.8 µM
TGI [33]: 24.4 µM
TGI [34]: > 100 µM
TGI [35]: 78.5 µM
TGI [36]: > 41.3 µM
TGI [37]: > 37.3 µM
TGI [38]: > 44 µM
TGI [39]: > 100 µM
TGI [40]: > 100 µM
TGI [41]: > 79.3 µM
TGI [42]: 4.51 µM
TGI [43]: 64.5 µM
TGI [44]: > 100 µM
TGI [45]: 11.3 µM
TGI [46]: > 100 µM
TGI [47]: > 28.8 µM
TGI [48]: > 100 µM
TGI [49]: 9.77 µM
TGI [50]: 0.298 µM
TGI [51]: > 100 µM
TGI [52]: > 100 µM
TGI [53]: 5.04 µM
TGI [54]: > 100 µM
TGI [55]: 7.34 µM
TGI [56]: 17 µM
TGI [57]: 16.8 µM

N#Cc1ccc(Sc2ccccc2)cc1C#N
TGI [1]: 71 µM
TGI [2]: > 100 µM
TGI [3]: > 100 µM
TGI [4]: > 100 µM
TGI [5]: > 100 µM
TGI [6]: 43.3 µM
TGI [7]: > 100 µM
TGI [8]: > 100 µM
TGI [10]: 36.6 µM
TGI [11]: > 100 µM
TGI [12]: > 100 µM
TGI [13]: 40.6 µM
TGI [14]: 30.6 µM
TGI [15]: > 100 µM
TGI [16]: > 100 µM
TGI [17]: > 100 µM
TGI [18]: 74.4 µM
TGI [19]: > 100 µM
TGI [20]: > 100 µM
TGI [21]: > 100 µM
TGI [22]: > 100 µM
TGI [23]: > 100 µM
TGI [24]: 41.7 µM
TGI [25]: > 100 µM
TGI [26]: > 100 µM
TGI [27]: > 100 µM
TGI [28]: > 100 µM
TGI [58]: > 100 µM
TGI [29]: > 100 µM
TGI [30]: > 100 µM
TGI [31]: 46.6 µM
TGI [32]: > 100 µM
TGI [33]: > 100 µM
TGI [34]: > 100 µM
TGI [35]: > 100 µM
TGI [36]: > 100 µM
TGI [37]: 53.9 µM
TGI [38]: 81 µM
TGI [39]: > 100 µM
TGI [40]: 51.6 µM
TGI [41]: > 100 µM
TGI [42]: 47.4 µM
TGI [43]: > 100 µM
TGI [44]: > 100 µM
TGI [45]: > 100 µM
TGI [46]: > 100 µM
TGI [47]: > 100 µM
TGI [48]: > 100 µM
TGI [49]: 52.1 µM
TGI [50]: 39.9 µM
TGI [52]: > 100 µM
TGI [53]: > 100 µM
TGI [54]: > 100 µM
TGI [55]: > 100 µM
TGI [56]: > 100 µM
TGI [57]: 58 µM
